Results on eight compounds are retold here after PubChem BioAssay (NCI).

SMILES strings stand for the structures.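 Results reflect a 48-hour exposure of cells in 96-well plates to compound at five concentrations. At the TGI there is no net growth.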

Test systems include U251 CNS; OVCAR-3 ovarian; CAKI-1 renal; 786-0 renal; SF-295 CNS; LOX IMVI melanoma; A549 NSCLC; NCI-H460 lung; OVCAR-8 ovarian; SK-OV-3 ovarian; HOP-92 NSCLC; NCI-H23 lung; SNB-78 CNS; TK-10 renal; NCI-H226 lung; CCRF-CEM leukemia; HL-60(TB) leukemia; OVCAR-5 ovarian; MALME-3M melanoma; T-47D breast.
Holding throughout (assay): growth of human tumour cells (NCI), 48 h

For `CN(Cc1ccccc1)C(=NC#N)N(C)Cc1ccccc1`, the TGI in the assay on U251 CNS, in the assay with OVCAR-3 ovarian, in the assay on CAKI-1 renal, in the assay on 786-0 renal, in the assay with SF-295 CNS and with LOX IMVI melanoma was over 100 µM each time. Also, the TGI in the assay on A549 NSCLC, in the assay with NCI-H460 lung, with OVCAR-8 ovarian, with SK-OV-3 ovarian, in the assay with HOP-92 NSCLC and with NCI-H23 lung was over 100 µM each time. The TGI with SNB-78 CNS and in the assay on TK-10 renal was over 100 µM throughout.
Regarding `COc1cc(/C=C\c2cccnc2)cc(OC)c1OC`, the TGI in the assay with NCI-H226 lung, in the assay with U251 CNS, with OVCAR-3 ovarian, with CAKI-1 renal, in the assay with 786-0 renal and in the assay on SF-295 CNS was over 100 µM each time. Also, the TGI in the assay on LOX IMVI melanoma is 71.3 µM; with CCRF-CEM leukemia it was over 100 µM; in the assay with A549 NSCLC it was over 100 µM; in the assay on HL-60(TB) leukemia, 48 µM; with NCI-H460 lung, over 100 µM; in the assay on OVCAR-5 ovarian it was over 100 µM. The TGI in the assay with OVCAR-8 ovarian, with MALME-3M melanoma, in the assay on HOP-92 NSCLC, with NCI-H23 lung, with SNB-78 CNS and with TK-10 renal was over 100 µM in each case.
In the case of `Brc1cc2c(cc1C1SCCS1)OCO2`, the TGI with U251 CNS, with OVCAR-3 ovarian, in the assay with CAKI-1 renal, in the assay with 786-0 renal, with SF-295 CNS and with LOX IMVI melanoma was over 100 µM in each case. In addition, the TGI in the assay with CCRF-CEM leukemia, with A549 NSCLC, with HL-60(TB) leukemia, with NCI-H460 lung, in the assay with OVCAR-5 ovarian and in the assay with OVCAR-8 ovarian was over 100 µM each time. The TGI in the assay with MALME-3M melanoma, with SK-OV-3 ovarian, with NCI-H23 lung, in the assay with SNB-78 CNS and in the assay with TK-10 renal was over 100 µM each time.
On to `COc1ccccc1/C=C1\CCC(CCN2CCOCC2)C1=O` (stereo not given), for which the TGI with NCI-H226 lung, in the assay on OVCAR-3 ovarian, with CAKI-1 renal, in the assay with 786-0 renal, with SF-295 CNS and in the assay with LOX IMVI melanoma was over 100 µM each time. In addition, the TGI with CCRF-CEM leukemia, in the assay on A549 NSCLC, in the assay with HL-60(TB) leukemia, in the assay on NCI-H460 lung, with OVCAR-5 ovarian and in the assay with OVCAR-8 ovarian was over 100 µM throughout. The TGI in the assay on MALME-3M melanoma, in the assay with HOP-92 NSCLC, with NCI-H23 lung, in the assay with SNB-78 CNS and in the assay on TK-10 renal was over 100 µM in each case.
Consider `O=C(O)[C@@H]1NC[C@H]2C(Br)=NO[C@H]21`, for which the TGI with NCI-H226 lung, with U251 CNS, with OVCAR-3 ovarian, in the assay with CAKI-1 renal, in the assay with 786-0 renal and with SF-295 CNS was over 100 µM in each case. Also, the TGI in the assay on LOX IMVI melanoma, with CCRF-CEM leukemia, in the assay on A549 NSCLC, in the assay with HL-60(TB) leukemia, with NCI-H460 lung and with OVCAR-5 ovarian was over 100 µM each time. Besides, the TGI with OVCAR-8 ovarian, in the assay on MALME-3M melanoma, with SK-OV-3 ovarian, in the assay on HOP-92 NSCLC, in the assay with T-47D breast and with NCI-H23 lung was over 100 µM in each case. The TGI with TK-10 renal was over 100 µM.
In the case of `Cc1ccc2[nH]c3c(c2c1)C1CCC(C(C)(C)C)CC1C1C(=O)N(c2ccc4c(c2)OCO4)C(=O)C31` (stereo not given), the TGI was found to be 8.58 µM with NCI-H226 lung; 4.77 µM in the assay on U251 CNS; 3.08 µM with OVCAR-3 ovarian; 5.54 µM in the assay with CAKI-1 renal; 3 µM in the assay with 786-0 renal; 9.85 µM with SF-295 CNS. In addition, the TGI in the assay on LOX IMVI melanoma came out at 6.25 µM; with CCRF-CEM leukemia, 3.81 µM; with A549 NSCLC, 6.38 µM; in the assay with HL-60(TB) leukemia, 11.9 µM; with NCI-H460 lung, 3.27 µM; in the assay on OVCAR-5 ovarian, 13.6 µM. For the same compound, the TGI came out at 4.28 µM with OVCAR-8 ovarian; 6.14 µM with MALME-3M melanoma; 6.86 µM in the assay on SK-OV-3 ovarian; 6.22 µM in the assay on HOP-92 NSCLC; 3.94 µM in the assay with T-47D breast; 18.3 µM in the assay on NCI-H23 lung. In the assay with TK-10 renal, the TGI was determined as 4.32 µM.
For the compound `COc1ccc(C=C(c2ccc(OCc3ccccc3)cc2)c2ccc(OCc3ccccc3)cc2)cc1`, the TGI in the assay on NCI-H226 lung, in the assay with U251 CNS, in the assay on OVCAR-3 ovarian, in the assay on CAKI-1 renal, in the assay on 786-0 renal and with SF-295 CNS was over 100 µM throughout. The TGI in the assay with LOX IMVI melanoma, in the assay on A549 NSCLC, in the assay on HL-60(TB) leukemia, with NCI-H460 lung, in the assay on OVCAR-5 ovarian and in the assay with OVCAR-8 ovarian was over 100 µM in each case. Besides, the TGI in the assay with MALME-3M melanoma, with SK-OV-3 ovarian, in the assay on NCI-H23 lung, in the assay with SNB-78 CNS and with TK-10 renal was over 100 µM throughout.
`COC(=O)/C=C(/OC)[C@H](C)[C@H](/C=C/c1csc(-c2csc(C(C)C)n2)n1)OC`: the TGI in the assay with NCI-H226 lung was over 100 µM; in the assay with U251 CNS, over 100 µM; with OVCAR-3 ovarian, over 56.3 µM; with CAKI-1 renal, over 100 µM; in the assay with 786-0 renal it was over 100 µM; with SF-295 CNS, over 100 µM. The TGI is 5.07 µM in the assay with LOX IMVI melanoma; over 100 µM with CCRF-CEM leukemia; over 100 µM in the assay on A549 NSCLC; 99.5 µM with HL-60(TB) leukemia; over 100 µM with NCI-H460 lung; over 100 µM with OVCAR-5 ovarian. In addition, the TGI in the assay on OVCAR-8 ovarian, in the assay on MALME-3M melanoma, in the assay with SK-OV-3 ovarian, in the assay with HOP-92 NSCLC, in the assay with T-47D breast and with NCI-H23 lung was over 100 µM in each case. This compound also returned a TGI with TK-10 renal of over 100 µM.
